The subject of this assay is human peripheral blood pan T cells. Description: IFNγ and IL-2 secretion analysis of human peripheral pan T cells. It is filed as cell-based. The settings on record: CD3/CD28 stimulation, 100 nM Prostaglandin E2, 24 hr. The protocol:
Human peripheral blood pan T cells were purchased from STEMCELL™ Technologies Inc. Human peripheral blood pan T cells were thawed and suspended in DMEM media (10% FBS and 100 Penicillin/Streptomycin). 8×10^4 T cells were seeded in 96-well plate and incubated with various concentration of compounds and 100 nM Prostaglandin E2 for 1 hr. T cells were stimulated with Dynabeads Human T-Activator CD3/CD28 (Life Technologies) at a 1:3 cells:beads ratio. […] Data were analyzed with an MESO Quickplex SQ120 (Mesoscale Discovery).

The mark [1] stands for this setting: Homo sapiens, T-cell, 24 h, IFNγ secretion, read-out: IFNγ (EC50).
Where [2] appears, read: Homo sapiens, T-cell, 24 h, IL-2 secretion, read-out: IL-2 (EC50).

Read-outs that look alike come from different tables or passages of the source.

The text below walks through data of patent publication US11834467B2, “Substituted indazoles as hematopoietic progenitor kinase 1 (HPK1) inhibitors” (1ST Biotherapeutics, Inc., priority 2020, dated 2023).

With `CCc1c(F)cc2[nH]ncc2c1-c1ccc2nc(NC(=O)[C@@H]3C[C@@H]3F)cn2n1` [Example 4], the EC50 (commonly the concentration giving half of the maximal effect) runs as follows: under setting [1], under 200 nM; under setting [2], 200 to 1000 nM.

For the compound `CCc1c(F)c(N(C)C)c2[nH]ncc2c1-c1ccc2nc(NC(=O)[C@@H]3C[C@@H]3F)cn2n1` [Example 7], the EC50 by setting is: under setting [1], 200 to 1000 nM; under setting [2], 200 to 1000 nM.

`CCOc1c(F)c(CC)c(-c2ccc3nc(NC(=O)[C@@H]4C[C@@H]4F)cn3n2)c2cn[nH]c12` [Example 13]: the EC50 by setting is: under setting [1], 200 to 1000 nM; under setting [2], 200 to 1000 nM.

As to `CCc1c(F)c(N(C)C)c2[nH]ncc2c1-c1cn2cc(NC(=O)[C@@H]3C[C@@H]3F)nc2cn1` [Example 26], the EC50 is, setting by setting: under setting [1], under 200 nM; under setting [2], 200 to 1000 nM.

Regarding `CSc1c(F)c(SC)c2[nH]ncc2c1-c1cn2cc(NC(=O)[C@@H]3C[C@@H]3F)nc2cn1` [Example 27], the EC50 under setting [1] was under 200 nM.

Regarding `CN(C)c1c(F)c(Cl)c(-c2cn3cc(NC(=O)[C@@H]4C[C@@H]4F)nc3cn2)c2cn[nH]c12` [Example 33], the EC50 was under 200 nM under setting [1] and 200 to 1000 nM under setting [2].

Regarding `CCOc1c(F)c(Cl)c(-c2cn3cc(NC(=O)[C@@H]4C[C@@H]4F)nc3cn2)c2cn[nH]c12` [Example 34], the EC50 was under 200 nM under setting [1] and 200 to 1000 nM under setting [2].

Turning to `CSc1c(F)c(Cl)c(-c2cn3cc(NC(=O)[C@@H]4C[C@@H]4F)nc3cn2)c2cn[nH]c12` [Example 38], the EC50 is 200 to 1000 nM under setting [1]; 200 to 1000 nM under setting [2]; under 200 nM (IFNγ secretion, read-out: IFNγ (EC50)).

In the case of `CN(C)c1c(F)c(C(F)(F)F)c(-c2cn3cc(NC(=O)[C@@H]4C[C@@H]4F)nc3cn2)c2cn[nH]c12` [Example 40], the EC50 by setting is: under setting [1], under 200 nM; under setting [2], 200 to 1000 nM.

With `CCN(C)c1c(F)c(Cl)c(-c2cn3cc(NC(=O)[C@@H]4C[C@@H]4F)nc3cn2)c2cn[nH]c12` [Example 41], the EC50 was under 200 nM under setting [1] and 200 to 1000 nM under setting [2].

`CCN(C)c1c(F)c(C(F)(F)F)c(-c2cn3cc(NC(=O)[C@@H]4C[C@@H]4F)nc3cn2)c2cn[nH]c12` [Example 42]: the EC50 under setting [1] is under 200 nM and the EC50 under setting [2] was 200 to 1000 nM.

`CCOc1c(F)c(CC)c(-c2cn3cc(NC(=O)[C@@H]4C[C@@H]4F)nc3cn2)c2cn[nH]c12` [Example 44]: the EC50 runs as follows: under setting [1], under 200 nM; under setting [2], 200 to 1000 nM.

Turning to `CN(c1c(F)c(Cl)c(-c2cn3cc(NC(=O)[C@@H]4C[C@@H]4F)nc3cn2)c2cn[nH]c12)C1CC1` [Example 58], the EC50 runs as follows: under setting [1], under 200 nM; under setting [2], 200 to 1000 nM.

With `CC(C)Nc1c(F)c(Cl)c(-c2cn3cc(NC(=O)[C@@H]4C[C@@H]4F)nc3cn2)c2cn[nH]c12` [Example 61, (1S,2S)—N-(6-(5-chloro-6-fluoro-7-(isopropylamino)-1H-indazol-4-yl)imidazo[1,2-a]pyrazin-2-yl)-2-fluorocyclopropane-1-carboxamide], the EC50 is, setting by setting: under setting [1], under 200 nM; under setting [2], 200 to 1000 nM.

`CC(C)N(C)c1c(F)c(Cl)c(-c2cn3cc(NC(=O)[C@@H]4C[C@@H]4F)nc3cn2)c2cn[nH]c12` [Example 62]: the EC50 under setting [1] is under 200 nM and the EC50 under setting [2] lay in the range of 200 to 1000 nM.

With `CC(C)c1c(F)c(Cl)c(-c2cn3cc(NC(=O)[C@@H]4C[C@@H]4F)nc3cn2)c2cn[nH]c12` [Example 64, (1S,2S)—N-(6-(5-chloro-6-fluoro-7-isopropyl-1H-indazol-4-yl)imidazo[1,2-a]pyrazin-2-yl)-2-fluorocyclopropane-1-carboxamide], the EC50 runs as follows: under setting [1], under 200 nM; under setting [2], under 200 nM.
